In brackets after ≈: the same amount, converted by molar mass.
Assays:
[1] = Solubility of candesartan cilexetil in water from solid state emulsion systems, room temperature; assay type: physicochemical; details: thermodynamic from solid, sample weight 50 mg in 100 ml
Experimental: (§1) The solubility of candesartan cilexetil in water was studied at room temperature. Water dispersion (100 ml) of the sample in the laboratory beaker was mixed on the magnetic stirrer for 60 minutes. Afterwards, the part of the dispersion was taken from the beaker, filtered through the 0.45 μm filter and the concentration of candesartan cilexetil was determined by HPLC.

[2] = cited from earlier work
[3] = Solubility of celecoxib in water from solid state emulsion systems; assay type: physicochemical; details: thermodynamic from solid, sample weight 100 mg, ultrasound
Experimental: as §1
The solubility of celecoxib in water was determined with the same procedure as described in Example 7.

[4] = Stability of micronized vs unmicronised candesartan cilexetil at 40° C. and 75% humidity (impurities); assay type: physicochemical
Experimental: This approach is not appropriate for candesartan cilexetil, because any mechanical stress applied to the crystals of candesartan cilexetil leads to deterioration of the crystal structure and/or partial or complete (if mechanical stress is long enough) amorphisation, resulting in decreased stability. For example, when micronized candesartan cilexetil with d(0.9)=5 μm is subjected to 40° C. and 75% humidity for 1 month the impurities changed from 0.33% to 0.85%, compared to 0.19% and 0.10% for the unmicronised sample.

[5] = after 40° C. and 75% humidity for 1 month

SMILES	impurities [4, 5] [%]	impurities ([4]; initial, before storage) [%]	other results
CCOc1nc2cccc(C(=O)OC(C)OC(=O)OC3CCCCC3)c2n1Cc1ccc(-c2ccccc2-c2nnn[nH]2)cc1 (centres unmarked) [Candesartan cilexetil]	–	–	solubility at 60 min [1]: < 0.1 µg/mL; solubility in phosphate buffer ([2]; phosphate buffer pH=7.0, at 37° C.): less than 0.2 μg/ml; water solubility ([2]; water, at 37° C.): 0.5 µg/mL (≈ 0.819 µM)
Cc1ccc(-c2cc(C(F)(F)F)nn2-c2ccc(S(N)(=O)=O)cc2)cc1 [Celecoxib, 4-[5-(4-methylphenyl)-3-(trifluoromethyl)pyrazol-1-yl]benzenesulfonamide]	–	–	solubility at 60 min [3]: 0.3 µg/mL (≈ 0.787 µM)
CCOc1nc2cccc(C(=O)OC(C)OC(=O)OC3CCCCC3)c2n1Cc1ccc(-c2ccccc2-c2nnn[nH]2)cc1 (centres unmarked) [micronized candesartan cilexetil, candesartan cilexetil]	0.85	0.33	–
CCOc1nc2cccc(C(=O)OC(C)OC(=O)OC3CCCCC3)c2n1Cc1ccc(-c2ccccc2-c2nnn[nH]2)cc1 (centres unmarked) [unmicronised sample, candesartan cilexetil]	0.10	0.19	–

— patent US8592490B2, “Self-microemulsifying drug delivery systems” (LEK Pharmaceuticals D.D., priority 2006, dated 2013)
